Data set [1] can be described thus: Photophysical properties of the non-fluorescent compounds in DMSO solvent. In kind it is physicochemical. On the set-up: εmax: unit not given here. As to conditions: for Quantum Yield(Φ) / εmax / λabs: DMSO solvent. The source says:
The photophysical properties measured in DMSO solvent for the non-fluorescent compounds synthesized according to the above synthesis examples are shown in Table 1 below.

For data set [2] the following is noted: commercially available quencher; cited from earlier work.

For the compound `CCn1c(=CC=CC=CC2=[N+](CCCCCC(=O)O)c3cc4c(cc3C2(C)C)-c2ccccc2C4(C)C)c2cccc3cccc1c32` [Dye 18], in data set [1], the “Quantum Yield(Φ)” value is 0.005, the εmax was 74,000 and the λabs turned out to be 680 nm.
In the same order, the values of `Cn1c(=CC=CC2=[N+](CCCCCC(=O)O)c3ccc4sc5ccccc5c4c3C2(C)C)c2cccc3cccc1c32` [Dye 48] are 0.001, 65,000 and 690 nm.
Taken in the same sequence, the figures for `Cn1c(=CC=CC2=Nc3c(ccc[n+]3CCCCCC(=O)O)C2(C)C)c2cccc3cccc1c32` [Dye 12] were 0.002, 53,000 and 676 nm.
As to `C[n+]1c(C=CC=c2c3cccc4cccc(c43)n2CCCCCC(=O)O)oc2c3ccccc3ccc21` [Dye 60], in data set [1], the “Quantum Yield(Φ)” value came out at 0.007, the εmax is listed as 42,000 and the λabs is 600 nm.
With `Cn1c(=CC=CC2=[N+](CCCCCC(=O)O)c3c(ccc4ccccc34)C2(C)C)c2cccc3cccc1c32` [Dye 16], in data set [1], the maximum absorption wavelength entry was “above 650 nm”, the “Quantum Yield(Φ)” value came out at 0.001, the εmax was 68,000 and the λabs worked out at 692 nm.
As for `CCN(CC)c1ccc2nc3ccc(/N=N/c4ccc(N(C)CCCC(=O)O)cc4)cc3[n+](-c3ccccc3)c2c1` [BHQ-3], the “absorbs light in the range” value in data set [2] is given as 650-700 nm.
For `Cn1c(=CC=CC2=[N+](CCCCCC(=O)O)c3ccccc3C2(C)C)c2cccc3cccc1c32` [Dye 6], in data set [1], the “Quantum Yield(Φ)” value was 0.005, the εmax is 75,000 and the λabs is reported as 672 nm.
For the compound `C[n+]1c(C=CC=c2c3cccc4cccc(c43)n2CCCCCC(=O)O)sc2ccccc21` [Dye 2], in data set [1], the maximum absorption wavelength entry is reported as “above 650 nm”, the “Quantum Yield(Φ)” value is 0.006, the εmax is listed as 28,000 and the λabs was determined as 664 nm.
In the case of `CC[n+]1c(C=CC=c2c3cccc4cccc(c43)n2CCCCCC(=O)O)sc2ccc3ccccc3c21` [Dye 61], in data set [1], the “Quantum Yield(Φ)” value was 0.002, the εmax is 24,000 and the λabs amounted to 630 nm.
For `CCn1c(=CC=CC2=[N+](CCCC(=O)O)c3c(ccc4c3c3ccccc3n4C)C2(C)C)c2cccc3cccc1c32` [Dye 17], in data set [1], the maximum absorption wavelength entry is “above 650 nm”, the “Quantum Yield(Φ)” value was 0.002, the εmax is recorded as 37,000 and the λabs is on record as 672 nm.
